Data: patent US9630957B2, “2,3-butanediamide epoxide compound and preparation method and use thereof” (Institute of Pharmacology and Toxicology Academy of …, priority 2014, dated 2017)
In brackets after ≈: the same amount, converted by molar mass.

How the values were obtained:
[1] = system: enterovirus EV71 (BrCr strain); test: Activity screening for anti-enterovirus EV71: inhibition of cytopathic effect in Vero cells; assay type: cell-based; conditions: for IC50: 100TCID50, Vero cells, CPE read when virus control reaches 4+, read-out: IC50 (half inhibitory concentration for enterovirus EV71); for SI (Selectivity Index = TC50/IC50): Vero cells
Method: Test item: Activity screening of the compounds for anti-enterovirus EV71
Test principle: Vero cells are used as viral host. The inhibition of the compound of the invention on the degree of cytopathic effect of Vero cells caused by enterovirus virus EV71 is determined.
1. Virus strain: enterovirus EV71 (BrCr, American Type Culture Collection, ATCC)
(§1) 2. Sample treatment: the compounds of the present invention are dissolved in DMSO or diluent to prepare stock solution which is stored at −20° C. The stock solution is formulated to suitable incipient concentration with culture solution immediately before use, and then 3-fold diluted with the culture solution, 8 degrees of dilution each.
3. Positive control drug: Pirodavir (LGM Pharma), which is a broad-spectrum anti-viral inhibitor.
(§2) 4. Test Method: Vero cells are seeded into a 96-well culture plate, at 5% CO2, and cultured at 37° C. for 16 hours. The Vero cells are added with different dilutions of drugs, and the degree of cytopathic effect (CPE) in each group is observed. The half toxic concentration (TC50) of each sample for Vero cells is calculated. Vero cells are added with 100TCID50 enterovirus EV71 respectively, and the virus solution is discarded after adsorption at 37° C. for 1 hour, and then drugs with various degrees of dilution are added respectively. Virus control and cell control are set and incubated at 37° C. The degree of cytopathic effect (CPE) in each group is observed when the degree of cytopathic effect (CPE) of virus control group reaches 4+. The half inhibitory concentration (IC50) of each sample for enterovirus EV71 are calculated. Selectivity Index (SI) is calculated according to the following equation: SI=TC50/IC50.

[2] = system: Vero cells; test: Cytotoxicity of the compounds for Vero cells (CPE observation, TC50); assay type: cell-based; conditions: no virus
Method: as §1, §2

Row | melting point [°C] | IC50 [1] [µg/mL] | Structure (SMILES) | SI (Selectivity Index = TC50/IC50) [1] | TC50 (half toxic concentration for Vero cells) [2] [µg/mL]
1 | 175.2 to 175.8 | 0.23 (≈ 0.565 µM) | O=C(Nc1ccc(Cl)cc1)[C@H]1O[C@@H]1C(=O)N(Cc1ccccc1)c1ccccc1 [Compound 12, (2S,3S)—N^2-benzyl-N^2-phenyl-N^3-(4-chlorophenyl)-2,3-epoxybutanediamide] | 46.43 | 10.68
2 | 218.6 to 219.2 | > 2.47 | CCOC(=O)c1cnc(NC(=O)[C@H]2O[C@@H]2C(=O)N(Cc2ccc(F)cc2)c2ccc(C(=O)Nc3nc4ccccc4s3)cc2)s1 [Compound 35, (2S,3S)—N^2-(4-(benzo[d]thiazol-2-ylcarbamoyl)phenyl)-N^2-(4-fluorobenzyl)-N^3-(5-ethoxycarbonylthiazol-2-yl)-2,3-epoxybutanediamide] |  | 4.28
3 | 199.7 to 200.5 | > 0.82 | O=C(Nc1nc2ccccc2s1)c1ccc(N(Cc2ccc(F)cc2)C(=O)[C@H]2O[C@@H]2C(=O)Nc2ccc(F)cc2)cc1 [Compound 29, (2S,3S)—N^2-(4-(benzo[d]thiazol-2-ylcarbamoyl)phenyl)-N^3-(4-fluorophenyl)-N^2-(4-fluorobenzyl)-2,3-epoxybutanediamide] |  | 1.43
4 | 130.7 to 131.7 | 0.27 (≈ 0.671 µM) | COc1cccc(NC(=O)[C@H]2O[C@@H]2C(=O)N(Cc2ccccc2)c2ccccc2)c1 [Compound 7, (2S,3S)—N^2-benzyl-N^2-phenyl-N^3-(3-methoxyphenyl)-2,3-epoxybutanediamide] | 15.85 | 4.28
5 | 180.5 to 182 | 2.47 (≈ 6.33 µM) | O=C(Nc1cccc(F)c1)[C@H]1O[C@@H]1C(=O)N(Cc1ccccc1)c1ccccc1 [Compound 4, (2S,3S)—N^2-benzyl-N^2-phenyl-N^3-(3-fluorophenyl)-2,3-epoxybutanediamide] | 3.00 | 7.41
6 | 219.8 to 220.2 | > 0.82 | COC(=O)c1cnc(NC(=O)[C@H]2O[C@@H]2C(=O)N(Cc2ccc(F)cc2)c2ccc(C(=O)Nc3nc4ccccc4s3)cc2)s1 [Compound 36, (2S,3S)—N^2-(4-(benzo[d]thiazol-2-ylcarbamoyl)phenyl)-N^2-(4-fluorobenzyl)-N^3-(5-methoxycarbonylthiazol-2-yl)-2,3-epoxybutanediamide] |  | 3.56
7 | 200.6 to 201.3 | > 2.47 | O=C(Nc1nc2ccccc2s1)c1ccc(N(Cc2ccc(F)cc2)C(=O)[C@H]2O[C@@H]2C(=O)O)cc1 [Compound 16, (2S,3S)-3-((4-(benzo[d]thiazol-2-ylcarbamoyl)phenyl)(4-fluorobenzyl)carbamoyl)oxirane-2-carboxylic acid] |  | 17.25
8 | 210.3 to 211.1 | > 0.27 | Cc1c(Cl)cccc1NC(=O)[C@H]1O[C@@H]1C(=O)N(Cc1ccc(F)cc1)c1ccc(C(=O)Nc2nc3ccccc3s2)cc1 [Compound 28, (2S,3S)—N^2-(4-(benzo[d]thiazol-2-ylcarbamoyl)phenyl)-N^3-(2-methyl-3-chlorophenyl)-N^2-(4-fluorobenzyl)-2,3-epoxybutanediamide] |  | 0.82
9 |  | 0.13 (≈ 0.352 µM) | CCOC(=O)c1ccc(OCCC2CCN(c3ccc(C)nn3)CC2)cc1 [Pirodavir, reference compound] | 4.81 | 4.81
10 |  | > 0.82 | COC(=O)c1cnc(NC(=O)[C@H]2O[C@@H]2C(=O)N(Cc2ccccc2)c2ccc(C(=O)Nc3nc4ccccc4s3)cc2)s1 [Compound 42, (2S,3S)—N^2-(4-(benzo[d]thiazol-2-ylcarbamoyl)phenyl)-N^2-benzyl-N^3-(5-methoxycarbonylthiazol-2-yl)-2,3-epoxybutanediamide] |  | 4.28
